This is an account of results in patent publication US10501438B2, “Aryl-substituted dihydroquinolinones, their preparation and their use as pharmaceuticals” (NEOMED Institute, priority 2015, dated 2019).

The IC50 is the point on the concentration scale where inhibition reaches its midpoint. Low values mean greater potency, high ones weaker potency.

One assay concerns human C-Myc transcription in MV-4-11 cells. Nature of the assay: Transcription of human C-Myc in human leukemic MV-4-11 cells (QuantiGene 2.0). The class given is cell-based. The conditions noted are these: Homo sapiens, MV4-11, 4 h, inhibition of C-Myc mRNA, 4 hours treatment. On the procedure:
b) Transcription of Human C-Myc in Human Leukemic MV-4-11 Cells:
The effect of compounds on transcription of human C-Myc gene is monitored in human B-myelomonocytic leukemia cell line MV-4-11 (from American Type Culture Collection (ATCC), Manassas, Va., USA) using QuantiGene 2.0 assay kit (Affymetrix, Santa Clara, Calif., USA).
Typically, 8,000 MV-4-11 cells are plated in sterile 96-well plates (Costar #3598 from Fisher Scientific Canada, Ottawa, Ontario, Canada) in Iscove's medium supplemented with 10% fetal bovine serum, glutamine (2 mM), and penicillin (100 I.U.) and streptomycin (100 μg/mL) (all from Wisent Inc., St. Bruno, Quebec, Canada). Compounds are dissolved in DMSO at 30 mM. A series of 1:3 dilutions are first made in DMSO, and further 1:100 dilutions are made in serum-containing cell culture media. The final concentration of DMSO is 0.1% in cell culture media. After cells are treated with various concentrations of test compound for 4 hours, cells are lysed using Quantigene 2.0 sample processing kit (#QS0100). C-Myc mRNA is detected using a QuantiGene 2.0 assay kit (#QS0009) with gene-specific probe to human C-Myc (#SA-50182) following the manufacturer's recommendations. Luminescene signals are read on Flexstation II microplate reader (Molecular Devices, Sunnyvale, Calif., USA).
Regarding `Cc1cc(-c2cc3c(cc2Cc2ccccn2)NC(=O)CC3)cn(C)c1=O` [Compound 61, 6-(1,5-dimethyl-6-oxo-1,6-dihydropyridin-3-yl)-7-(pyridin-2-ylmethyl)-3,4-dihydroquinolin-2(1H)-one], half-maximal inhibition (IC50) was put at 890 nM.

`Cc1cc(-c2cc3c(c(COC4CCCOC4)c2)NC(=O)CC3)cn(C)c1=O` (centres unmarked) [Compound 48a, 6-(1,5-dimethyl-6-oxo-1,6-dihydropyridin-3-yl)-8-(((tetrahydro-2H-pyran-3-yl)oxy)methyl)-3,4-dihydroquinolin-2(1H)-one]: the half-maximal inhibitory concentration (IC50) is 2120 nM. Against the preceding compound, the IC50 is about 2.4-fold higher.

Compound `Cc1cc(-c2cc3c(c(COc4ccccc4)c2)NC(=O)CC3)cn(C)c1=O` [Compound 44, 6-(1,5-dimethyl-6-oxo-1,6-dihydropyridin-3-yl)-8-(phenoxymethyl)-3,4-dihydroquinolin-2(1H)-one] returned an IC50 of 270 nM.

Regarding `Cc1cc(-c2ccc3c(c2Cc2ccccn2)CCC(=O)N3)cn(C)c1=O` [Compound 57, 6-(1,5-dimethyl-6-oxo-1,6-dihydropyridin-3-yl)-5-(pyridin-2-ylmethyl)-3,4-dihydroquinolin-2(1H)-one], half-maximal inhibition (IC50) required 240 nM.

Regarding `Cc1cc(-c2ccc3c(c2C(C)c2ccccc2)CCC(=O)N3)cn(C)c1=O` (centres unmarked) [Compound 95, 6-(1,5-dimethyl-6-oxo-1,6-dihydropyridin-3-yl)-5-(1-phenylethyl)-3,4-dihydroquinolin-2(1H)-one], the IC50 came out at 30 nM.

Consider `Cc1cc(-c2cc3c(cc2Cc2ccccc2)CCC(=O)N3)cn(C)c1=O` [Compound 31, 6-benzyl-7-(1,5-dimethyl-6-oxo-1,6-dihydropyridin-3-yl)-3,4-dihydroquinolin-2(1H)-one], for which half-maximal inhibition (IC50) was put at 290 nM.

Regarding `Cc1cc(-c2ccc3c(c2Cc2ccncc2)CCC(=O)N3)cn(C)c1=O` [Compound 59, 6-(1,5-dimethyl-6-oxo-1,6-dihydropyridin-3-yl)-5-(pyridin-4-ylmethyl)-3,4-dihydroquinolin-2(1H)-one], the 50% inhibitory concentration (IC50) turned out to be 270 nM. This IC50 and that of the compound before are within 1.5-fold of each other.

On to `Cc1cc(-c2cc3c(cc2/C=C/c2ccccc2)NC(=O)CC3)cn(C)c1=O` [Compound 93, (E)-6-(1,5-dimethyl-6-oxo-1,6-dihydropyridin-3-yl)-7-styryl-3,4-dihydroquinolin-2(1H)-one], for which half-maximal inhibition (IC50) required 760 nM.

`Cc1cc(-c2cc3c(c(NCc4ccncc4)c2)NC(=O)CC3)cn(C)c1=O` [Compound 28, 6-(1,5-dimethyl-6-oxo-3-pyridyl)-8-(4-pyridylmethylamino)-3,4-dihydro-1H-quinolin-2-one] yielded a concentration for half-maximal inhibition (IC50) of 420 nM.

`Cc1cccnc1COc1cc(-c2cc(C)c(=O)n(C)c2)cc2c1NC(=O)CC2` [Compound 76, 6-(1,5-dimethyl-6-oxo-1,6-dihydropyridin-3-yl)-8-((3-methylpyridin-2-yl)methoxy)-3,4-dihydroquinolin-2(1H)-one]: it took 560 nM to reach half-maximal inhibition (IC50).

In the case of `Cc1cc(-c2cc3c(c(OCc4cncnc4)c2)NC(=O)CC3)cn(C)c1=O` [Compound 53, 6-(1,5-dimethyl-6-oxo-1,6-dihydropyridin-3-yl)-8-(pyrimidin-5-ylmethoxy)-3,4-dihydroquinolin-2(1H)-one], the concentration for half-maximal inhibition (IC50) turned out to be 2080 nM.

With `Cc1cc(-c2cc3c(c(OCC4CCCCC4)c2)NC(=O)CC3)cn(C)c1=O` [Compound 71], the half-maximal inhibitory concentration (IC50) was 540 nM.

Compound `Cc1cc(-c2cc3c(c(N(C)Cc4ccccc4)c2)NC(=O)CC3)cn(C)c1=O` [Compound 5, 8-[benzyl(methyl)amino]-6-(1,5-dimethyl-6-oxo-3-pyridyl)-3,4-dihydro-1H-quinolin-2-one] showed an IC50 of 250 nM. Compared with the last compound, the IC50 is about 2.2-fold lower.

`Cc1cc(-c2cc3c(c(OCC4CCOCC4)c2)NC(=O)CC3)cn(C)c1=O` [Compound 72, 6-(1,5-dimethyl-6-oxo-1,6-dihydropyridin-3-yl)-8-((tetrahydro-2H-pyran-4-yl)methoxy)-3,4-dihydroquinolin-2(1H)-one]: the IC50 was > 6140 nM.

`Cc1cc(-c2cc3c(c(COCC(F)(F)F)c2)NC(=O)CC3)cn(C)c1=O` [Compound 46, 6-(1,5-dimethyl-6-oxo-1,6-dihydropyridin-3-yl)-8-((2,2,2-trifluoroethoxy)methyl)-3,4-dihydroquinolin-2(1H)-one] gave a concentration for half-maximal inhibition (IC50) of 910 nM.

On to `Cc1cc(-c2cc3c(cc2COC2CCCC2)NC(=O)CC3)cn(C)c1=O` [Compound 70, 7-((cyclopentyloxy)methyl)-6-(1,5-dimethyl-6-oxo-1,6-dihydropyridin-3-yl)-3,4-dihydroquinolin-2(1H)-one], for which the half-maximal inhibitory concentration (IC50) stood at 7820 nM.

In turn, `Cc1cc(-c2cc3c(c(OCC4CCCOC4)c2)NC(=O)CC3)cn(C)c1=O` (centres unmarked) [Compound 54a, 6-(1,5-dimethyl-6-oxo-1,6-dihydropyridin-3-yl)-8-((tetrahydro-2H-pyran-3-yl)methoxy)-3,4-dihydroquinolin-2(1H)-one] registered an IC50 of 550 nM.

For `Cc1cc(-c2cc3c(cc2Cc2cccnc2)NC(=O)CC3)cn(C)c1=O` [Compound 62, 6-(1,5-dimethyl-6-oxo-1,6-dihydropyridin-3-yl)-7-(pyridin-3-ylmethyl)-3,4-dihydroquinolin-2(1H)-one], the 50% inhibitory concentration (IC50) was found to be 860 nM.

With `Cc1cc(-c2cc3c(cc2Cc2ccccn2)CCC(=O)N3)cn(C)c1=O` [Compound 32, 7-(1,5-dimethyl-6-oxo-1,6-dihydropyridin-3-yl)-6-(pyridin-2-ylmethyl)-3,4-dihydroquinolin-2(1H)-one], the IC50 is 2230 nM.

For `Cc1cc(-c2cc3c(c(OCc4nccs4)c2)NC(=O)CC3)cn(C)c1=O` [Compound 83, 6-(1,5-dimethyl-6-oxo-1,6-dihydropyridin-3-yl)-8-(thiazol-2-ylmethoxy)-3,4-dihydroquinolin-2(1H)-one], the IC50 turned out to be 510 nM.

`Cc1cc(-c2cc(Cc3ccccc3)c3c(c2)NC(=O)CC3)cn(C)c1=O` [Compound 99, 5-benzyl-7-(1,5-dimethyl-6-oxo-1,6-dihydropyridin-3-yl)-3,4-dihydroquinolin-2(1H)-one] came in with an IC50 of 840 nM.

Consider `Cc1cc(-c2cc3c(c(OCC4CCCC4)c2)NC(=O)CC3)cn(C)c1=O` [Compound 29, 8-(cyclopentylmethoxy)-6-(1,5-dimethyl-6-oxo-1,6-dihydropyridin-3-yl)-3,4-dihydroquinolin-2(1H)-one], for which the IC50 amounted to 190 nM.

In the case of `Cc1cc(-c2ccc3c(c2COC2CCC2)NC(=O)CC3)cn(C)c1=O` [Compound 39, 8-(cyclobutoxymethyl)-7-(1,5-dimethyl-6-oxo-1,6-dihydropyridin-3-yl)-3,4-dihydroquinolin-2(1H)-one], the IC50 stood at 9850 nM.

`Cc1cc(-c2ccc3c(c2/C=C/c2ccccc2)CCC(=O)N3)cn(C)c1=O` [Compound 94, (E)-6-(1,5-dimethyl-6-oxo-1,6-dihydropyridin-3-yl)-5-styryl-3,4-dihydroquinolin-2(1H)-one] showed an IC50 of 730 nM.

For `Cc1cc(-c2cc3c(cc2Cc2cccc(F)c2)NC(=O)CC3)cn(C)c1=O` [Compound 85, 6-(1,5-dimethyl-6-oxo-1,6-dihydropyridin-3-yl)-7-(3-fluorobenzyl)-3,4-dihydroquinolin-2(1H)-one], inhibition was half-maximal at 350 nM (IC50). Compared with the last compound, the IC50 is about 2.1-fold lower.

The assay is the same for the next values; noted with them: inhibition of C-Myc mRNA, 4 hours treatment.
In turn, `Cc1cc(-c2cc3c(c(NC(C)c4ccccn4)c2)NC(=O)CC3)cn(C)c1=O` (centres unmarked) [Compound 23, 6-(1,5-dimethyl-6-oxo-3-pyridyl)-8-[1-(2-pyridyl)ethylamino]-3,4-dihydro-1H-quinolin-2-one] had an IC50 of 240 nM.
